According to patent US11786528B2, “Pyrazolopyrimidine compounds as adenosine receptor antagonists” (EXSCIENTIA LTD., priority 2018, dated 2023):

How the values were obtained:
[1] = target: human adenosine receptor sub-type A2a (wild type) (Homo sapiens (Human), UniProt P29274); assay: Affinity for human adenosine A2a receptor by surface plasmon resonance (SPR); format: binding
Method: (§1) Affinity for the human adenosine receptor sub-types (A2a, A2b, A1 and A3) was determined by surface plasmon resonance (SPR) using published methodologies (see below for further details).
(§2) Affinity for the human adenosine receptor sub-types (A2a, A2b, A1 and A3) was determined by SPR as described in Aristotelous, T., et al, Methods in Enzymology (2015), Volume 556, Chapter 23, pages 499-525 and Congreve, M., et al, J Med Chem (2012), Vol. 55, pages 1898-1903. The method used was analogous to the method used in Congreve, M., et al (see supplementary page S10) for the A2a receptor, but the wild type receptor was used rather than the proprietary StaR form.

[2] = target: human A2a receptors (HEK 293 transfected) (Homo sapiens (Human), UniProt P29274); assay: Inhibition of cAMP release in HEK-A2aR cells (HTRF, LANCE Ultra cAMP); format: cell-based; settings: 3 nM NECA, 10 min
Chain of human A2a receptors (HEK 293 transfected) (P29274 whole entry): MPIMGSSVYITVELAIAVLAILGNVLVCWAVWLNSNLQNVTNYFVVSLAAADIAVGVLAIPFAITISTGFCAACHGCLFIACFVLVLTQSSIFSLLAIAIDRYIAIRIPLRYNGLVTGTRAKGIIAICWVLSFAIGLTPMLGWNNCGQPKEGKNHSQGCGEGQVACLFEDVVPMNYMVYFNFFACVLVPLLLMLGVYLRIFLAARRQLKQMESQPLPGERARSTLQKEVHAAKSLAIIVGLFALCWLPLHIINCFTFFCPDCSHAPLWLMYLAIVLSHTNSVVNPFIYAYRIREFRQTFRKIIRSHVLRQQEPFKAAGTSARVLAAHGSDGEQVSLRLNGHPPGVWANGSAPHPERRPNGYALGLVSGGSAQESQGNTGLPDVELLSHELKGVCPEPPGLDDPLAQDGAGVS
Method: Functional activity was measured by inhibition of cAMP release in HEK cells (see below for further details).
To screen A2a receptor inhibitors by HTRF technology, about 500 HEK-A2aR cells (HEK 293 transfected with human A2a receptors) were treated with inhibitors in presence of stimulation buffer (1×HBSS, 5 mM HEPES, 0.1% BSA stabilizer, pH 7.4) supplemented with 30 μM phosphodiesterase inhibitor Rolipram (to prevent cAMP degradation). This stimulation was immediately followed by treatment with 3 nM standard A2aR agonist (NECA) for 10 min under gentle shaking at room temperature. After that, inhibition of cAMP release was determined directly using LANCE Ultra cAMP assay (Perkin Elmer TRF0263).
All analysis was performed using GraphPad Prism 7.0 (GraphPad Software, San Diego, USA). Results are given, as EC50 (M).

[3] = target: human adenosine receptor sub-type A3 (Homo sapiens (Human), UniProt P0DMS8); assay: Affinity for human adenosine A3 receptor by SPR; format: binding; settings: for IC50: SPR, human A3 receptor; for Relative selectivity for A2a v. A3: from SPR IC50 values, rounded to 2 significant figures
Chain of human adenosine receptor sub-type A3 (P0DMS8 whole entry): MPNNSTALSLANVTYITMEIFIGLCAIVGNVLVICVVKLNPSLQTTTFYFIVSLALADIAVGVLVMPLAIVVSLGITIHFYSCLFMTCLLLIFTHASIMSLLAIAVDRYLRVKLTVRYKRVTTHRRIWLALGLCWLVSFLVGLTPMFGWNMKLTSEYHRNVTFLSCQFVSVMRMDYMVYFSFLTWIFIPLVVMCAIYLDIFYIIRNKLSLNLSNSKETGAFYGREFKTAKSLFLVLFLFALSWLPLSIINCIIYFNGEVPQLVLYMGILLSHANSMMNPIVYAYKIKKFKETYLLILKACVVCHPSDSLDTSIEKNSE
Method: as §1, §2

[4] = target: human adenosine receptor sub-type A1 (Homo sapiens (Human), UniProt P30542); assay: Affinity for human adenosine A1 receptor by SPR; format: binding; settings: for IC50: SPR, human A1 receptor; for Relative selectivity for A2a v. A1: from SPR IC50 values, rounded to 2 significant figures
Chain of human adenosine receptor sub-type A1 (P30542 whole entry): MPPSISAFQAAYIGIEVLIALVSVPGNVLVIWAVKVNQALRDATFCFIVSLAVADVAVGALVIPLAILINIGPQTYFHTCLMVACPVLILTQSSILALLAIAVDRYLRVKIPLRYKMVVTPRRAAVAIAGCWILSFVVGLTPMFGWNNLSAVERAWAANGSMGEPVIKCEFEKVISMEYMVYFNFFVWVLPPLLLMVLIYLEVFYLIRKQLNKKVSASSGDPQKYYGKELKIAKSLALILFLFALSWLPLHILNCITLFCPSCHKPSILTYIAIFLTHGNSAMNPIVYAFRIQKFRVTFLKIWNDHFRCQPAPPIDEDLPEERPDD
Method: as §1, §2

[5] = target: human adenosine receptor sub-type A2b (Homo sapiens (Human), UniProt P29275); assay: Affinity for human adenosine A2b receptor by SPR; format: binding; settings: for IC50: SPR, human A2b receptor; for Relative selectivity for A2a v. A2b: from SPR IC50 values, rounded to 2 significant figures
Chain of human adenosine receptor sub-type A2b (P29275 whole entry): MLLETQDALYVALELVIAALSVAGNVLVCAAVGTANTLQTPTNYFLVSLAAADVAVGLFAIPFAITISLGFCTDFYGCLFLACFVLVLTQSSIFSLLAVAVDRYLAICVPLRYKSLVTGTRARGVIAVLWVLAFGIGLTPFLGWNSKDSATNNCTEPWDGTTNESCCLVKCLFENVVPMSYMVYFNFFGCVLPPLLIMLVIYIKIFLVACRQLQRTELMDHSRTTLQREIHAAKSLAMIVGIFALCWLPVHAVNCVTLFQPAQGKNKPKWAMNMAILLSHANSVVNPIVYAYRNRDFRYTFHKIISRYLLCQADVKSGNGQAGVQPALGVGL
Method: as §1, §2

Chain of human adenosine receptor sub-type A2a (wild type) (P29274 whole entry): as the sequence (P29274 whole entry) above

Row | SMILES | IC50 [1] | EC50 [2] | further results
1 | COc1cccc(Cn2cc3c(N)nc(-c4cnccn4)nc3n2)c1 [Example 2, 2-[(3-methoxyphenyl)methyl]-6-(pyrazin-2-yl)-2H-pyrazolo[3,4-d]pyrimidin-4-amine] | 0.0067 µM | 1.53 µM | 
2 | Nc1nc(-c2cnccn2)nc2nn(Cc3cccc(O)c3)cc12 [Example 3, 3-{[4-amino-6-(pyrazin-2-yl)-2H-pyrazolo[3,4-d]pyrimidin-2-yl]methyl}phenol] | 0.041 µM |  | 
3 | COc1cccc(Cn2cc3c(N)nc(-c4ncco4)nc3n2)c1 [Example 4, 2-[(3-methoxyphenyl)methyl]-6-(1,3-oxazol-2-yl)-2H-pyrazolo[3,4-d]pyrimidin-4-amine] | 0.0049 µM | 0.4 µM | 
4 | COc1cccc(Cn2cc3c(N)nc(-c4nc(C)cs4)nc3n2)c1 [Example 5, 2-[(3-methoxyphenyl)methyl]-6-(4-methyl-1,3-thiazol-2-yl)-2H-pyrazolo[3,4-d]pyrimidin-4-amine] | 0.047 µM |  | 
5 | COc1cccc(Cn2cc3c(N)nc(-c4cc(C)no4)nc3n2)c1 [Example 6, 2-[(3-methoxyphenyl)methyl]-6-(3-methyl-1,2-oxazol-5-yl)-2H-pyrazolo[3,4-d]pyrimidin-4-amine] | 0.162 µM |  | 
6 | COc1cccc(Cn2cc3c(N)nc(-c4snnc4C)nc3n2)c1 [Example 7, 2-[(3-methoxyphenyl)methyl]-6-(4-methyl-1,2,3-thiadiazol-5-yl)-2H-pyrazolo[3,4-d]pyrimidin-4-amine] | 0.024 µM |  | 
7 | COc1cccc(Cn2cc3c(N)nc(-c4cscn4)nc3n2)c1 [Example 9, 2-[(3-methoxyphenyl)methyl]-6-(1,3-thiazol-4-yl)-2H-pyrazolo[3,4-d]pyrimidin-4-amine] | 0.041 µM | 0.875 µM | 
8 | Cc1ccc(Cn2cc3c(N)nc(-c4cnccn4)nc3n2)cc1 [Example 12, 2-[(4-methylphenyl)methyl]-6-(pyrazin-2-yl)-2H-pyrazolo[3,4-d]pyrimidin-4-amine] | 0.0079 µM | 0.199 µM | IC50 [3]: 38.8 µM; Relative selectivity for A2a v. A3 [3]: 4900; IC50 [4]: 7.3 µM; Relative selectivity for A2a v. A1 [4]: 920; IC50 [5]: 9 µM; Relative selectivity for A2a v. A2b [5]: 1100
9 | Cc1ccc(Cn2cc3c(N)nc(-c4nccs4)nc3n2)cc1 [Example 14, 2-[(4-methylphenyl)methyl]-6-(1,3-thiazol-2-yl)-2H-pyrazolo[3,4-d]pyrimidin-4-amine] | 0.014 µM | 0.054 µM | 
10 | COc1ccc(Cn2cc3c(N)nc(-c4cnccn4)nc3n2)cc1 [Example 15, 2-[(4-methoxyphenyl)methyl]-6-(pyrazin-2-yl)-2H-pyrazolo[3,4-d]pyrimidin-4-amine] | 0.253 µM |  | 
11 | Nc1nc(-c2ccsn2)nc2nn(Cc3cc(Cl)ccc3Cl)cc12 [Example 20, 2-[(2,5-dichlorophenyl)methyl]-6-(1,2-thiazol-3-yl)-2H-pyrazolo[3,4-d]pyrimidin-4-amine] | 0.013 µM | 0.145 µM | 
12 | COc1cc(C)ccc1Cn1cc2c(N)nc(-c3ccsn3)nc2n1 [Example 25, 2-[(2-methoxy-4-methylphenyl)methyl]-6-(1,2-thiazol-3-yl)-2H-pyrazolo[3,4-d]pyrimidin-4-amine] | 0.018 µM | 0.407 µM | 
13 | Cc1cccc(Cn2cc3c(N)nc(-c4ncco4)nc3n2)c1 [Example 26, 2-[(3-methylphenyl)methyl]-6-(1,3-oxazol-2-yl)-2H-pyrazolo[3,4-d]pyrimidin-4-amine] | 0.0028 µM | 0.123 µM | 
14 | Nc1nc(-c2cnccn2)nc2nn(Cc3cccc(C(F)(F)F)c3)cc12 [Example 28, 6-(pyrazin-2-yl)-2-{[3-(trifluoromethyl)phenyl]methyl}-2H-pyrazolo[3,4-d]pyrimidin-4-amine] | 0.0032 µM | 0.013 µM | 
15 | Cc1ccccc1Cn1cc2c(N)nc(-c3cnccn3)nc2n1 [Example 31, 2-[(2-methylphenyl)methyl]-6-(pyrazin-2-yl)-2H-pyrazolo[3,4-d]pyrimidin-4-amine] | 0.0057 µM | 0.056 µM | 
16 | Nc1nc(-c2nccs2)nc2nn(Cc3nccs3)cc12 [Example 33, 6-(1,3-thiazol-2-yl)-2-[(1,3-thiazol-2-yl)methyl]-2H-pyrazolo[3,4-d]pyrimidin-4-amine] | 0.027 µM | 2.16 µM | 
17 | Nc1nc(-c2ccsn2)nc2nn(Cc3nccs3)cc12 [Example 34, 2-[(1,3-thiazol-2-yl)methyl]-6-(1,2-thiazol-3-yl)-2H-pyrazolo[3,4-d]pyrimidin-4-amine] | 0.067 µM |  | 
18 | Nc1nc(-c2cnccn2)nc2nn(Cc3cccc(Cl)c3)cc12 [Example 36, 2-[(3-chlorophenyl)methyl]-6-(pyrazin-2-yl)-2H-pyrazolo[3,4-d]pyrimidin-4-amine] | 0.0015 µM | 0.03 µM | 
19 | COc1ccccc1Cn1cc2c(N)nc(-c3ncco3)nc2n1 [Example 39, 2-[(2-methoxyphenyl)methyl]-6-(1,3-oxazol-2-yl)-2H-pyrazolo[3,4-d]pyrimidin-4-amine] | 0.0043 µM | 0.213 µM | 

Second part, led by results:

Row | IC50 [1] | EC50 [2] | SMILES | further results
20 | 0.0051 µM | 0.235 µM | COc1cccc(Cn2cc3c(N)nc(-c4ccsn4)nc3n2)c1 [Example 10, 2-[(3-methoxyphenyl)methyl]-6-(1,2-thiazol-3-yl)-2H-pyrazolo[3,4-d]pyrimidin-4-amine] | IC50 [3]: 60 µM; Relative selectivity for A2a v. A3 [3]: 12000; IC50 [4]: 0.68 µM; Relative selectivity for A2a v. A1 [4]: 130; IC50 [5]: 0.69 µM; Relative selectivity for A2a v. A2b [5]: 140
21 | 0.015 µM | 0.128 µM | Cc1ccc(Cn2cc3c(N)nc(-c4ccsn4)nc3n2)cc1 [Example 13, 2-[(4-methylphenyl)methyl]-6-(1,2-thiazol-3-yl)-2H-pyrazolo[3,4-d]pyrimidin-4-amine] | 
22 | 0.0083 µM | 0.009 µM | Nc1nc(-c2ccsn2)nc2nn(Cc3cccc(OC(F)(F)F)c3)cc12 [Example 16, 6-(1,2-thiazol-3-yl)-2-{[3-(trifluoromethoxy)phenyl]methyl}-2H-pyrazolo[3,4-d]pyrimidin-4-amine] | 
23 | 0.054 µM | 0.226 µM | Nc1nc(-c2ccsn2)nc2nn(Cc3ccc(C(F)(F)F)cc3)cc12 [Example 17, 6-(1,2-thiazol-3-yl)-2-{[4-(trifluoromethyl)phenyl]methyl}-2H-pyrazolo[3,4-d]pyrimidin-4-amine] | 
24 | 0.018 µM | 0.218 µM | COc1cc(Cn2cc3c(N)nc(-c4ccsn4)nc3n2)ccc1C [Example 18, 2-[(3-methoxy-4-methylphenyl)methyl]-6-(1,2-thiazol-3-yl)-2H-pyrazolo[3,4-d]pyrimidin-4-amine] | 
25 | 0.005 µM | 0.004 µM | Cc1ccc(Cn2cc3c(N)nc(-c4ccsn4)nc3n2)cc1C [Example 21, 2-[(3,4-dimethylphenyl)methyl]-6-(1,2-thiazol-3-yl)-2H-pyrazolo[3,4-d]pyrimidin-4-amine] | 
26 | 0.027 µM |  | Nc1nc(-c2ccsn2)nc2nn(Cc3ccccn3)cc12 [Example 22, 2-[(pyridin-2-yl)methyl]-6-(1,2-thiazol-3-yl)-2H-pyrazolo[3,4-d]pyrimidin-4-amine] | 
27 | 0.029 µM |  | Cc1ccc(Cn2cc3c(N)nc(-c4ccsn4)nc3n2)cn1 [Example 23, 2-[(6-methylpyridin-3-yl)methyl]-6-(1,2-thiazol-3-yl)-2H-pyrazolo[3,4-d]pyrimidin-4-amine] | 
28 | 0.015 µM | 0.118 µM | Nc1nc(-c2ccsn2)nc2nn(Cc3cccc(F)c3)cc12 [Example 29, 2-[(3-fluorophenyl)methyl]-6-(1,2-thiazol-3-yl)-2H-pyrazolo[3,4-d]pyrimidin-4-amine] | 
29 | 0.008 µM | 0.232 µM | Nc1nc(-c2cnccn2)nc2nn(Cc3cccc(F)c3)cc12 [Example 30, 2-[(3-fluorophenyl)methyl]-6-(pyrazin-2-yl)-2H-pyrazolo[3,4-d]pyrimidin-4-amine] | 
30 | 0.01 µM | 0.014 µM | Cc1ccccc1Cn1cc2c(N)nc(-c3ccsn3)nc2n1 [Example 32, 2-[(2-methylphenyl)methyl]-6-(1,2-thiazol-3-yl)-2H-pyrazolo[3,4-d]pyrimidin-4-amine] | 
31 | 0.061 µM |  | Nc1nc(-c2ccsn2)nc2nn(Cc3cccc(O)c3)cc12 [Example 42, 3-{[4-amino-6-(1,2-thiazol-3-yl)-2H-pyrazolo[3,4-d]pyrimidin-2-yl]methyl}phenol] | 
32 | 0.037 µM |  | Nc1nc(-c2ccsn2)nc2nn(Cc3cccc(CO)c3)cc12 [Example 46, [3-[(4-amino-6-(1,2-thiazol-3-yl)-pyrazolo[3,4-d]pyrimidin-2-yl)methyl]phenyl]methanol] | IC50 [3]: > 100 µM; Relative selectivity for A2a v. A3 [3]: >2700; IC50 [4]: > 100 µM; Relative selectivity for A2a v. A1 [4]: >2700; IC50 [5]: > 100 µM; Relative selectivity for A2a v. A2b [5]: >2700
